The values below are quoted from earlier work in article PMC3705364, “Biochemical and Electrophysiological Characterization of Two Sea Anemone Type 1 Potassium Toxins from a Geographically Distant Population of Bunodosoma caissarum” (Marine Drugs, 2013).

The data set concerns KV1.2. The note with it: expressed in Xenopus oocytes; cited from earlier work. The protocol: The pharmacological profile of BcsTx-1 and -2 were determined on a wide range of twelve KV channels (rKV1.1, rKV1.2, hKV1.3, rKV1.4, rKV1.5, rKV1.6, rKV2.1, rKV3.1, rKV4.2, rKV4.3, hERG and the insect channel Shaker IR; r: rat and h: human). Channels were expressed in X. laevis oocytes, and their currents were recorded by using two-electrode voltage-clamp technique. BcsTx1 (0.5 µM) inh ... || In order to characterize the potency and selectivity profile, concentration-response curves were constructed for BcsTx1. […] A concentration-response curve was also constructed to determine the concentration at which BcsTx2 blocked half of the channels.

Take “AsKs: type 1 toxin from Anemonia viridis / Anemonia sulcata (Swiss-Prot Q9TWG1) (ACKDNFAAATCKHVKENKNCGSQKYATNCAKTCGKC; UniProt Q9TWG1 1-36, looked up)”: the “block of KV1.2 current (in words)” value was “blocker of KV1.2 current”.
